Test results taken from ChEMBL document CHEMBL4800729 (2021).

Key:
[1] = target: Serine/threonine-protein kinase Nek3 (Homo sapiens) (UniProt P51956); assay: NEK3(h) Millipore kinase panel; conditions: Compound concentration 1.0 uM
[2] = target: 5-hydroxytryptamine receptor 2A (Homo sapiens) (UniProt P28223); conditions: Compound concentration 10.0 uM
[3] = target: Tyrosine-protein kinase ABL2 (Homo sapiens) (UniProt P42684); assay: Arg(h) Millipore kinase panel; conditions: Compound concentration 1.0 uM
[4] = target: Tyrosine-protein kinase HCK (Homo sapiens) (UniProt P08631); assay: Hck(h) activated Millipore kinase panel; conditions: Compound concentration 1.0 uM
[5] = target: Sigma non-opioid intracellular receptor 1 (Homo sapiens) (UniProt Q99720); conditions: Compound concentration 10.0 uM
[6] = target: Calcium/calmodulin-dependent protein kinase kinase 1 (Homo sapiens) (UniProt Q8N5S9); assay: CaMKK1(h) Millipore kinase panel; conditions: Compound concentration 1.0 uM
[7] = target: Tyrosine-protein kinase receptor UFO (Homo sapiens) (UniProt P30530); assay: Axl(h) Millipore kinase panel; conditions: Compound concentration 1.0 uM
[8] = target: cAMP-dependent protein kinase catalytic subunit alpha (Homo sapiens) (UniProt P17612); assay: PKA(h) Millipore kinase panel; conditions: Compound concentration 1.0 uM
[9] = target: 5-hydroxytryptamine receptor 1D (Homo sapiens) (UniProt P28221); conditions: Compound concentration 10.0 uM
[10] = target: Serine/threonine-protein kinase MARK1 (Homo sapiens) (UniProt Q9P0L2); assay: MARK1(h) Millipore kinase panel; conditions: Compound concentration 1.0 uM
[11] = target: Cyclin-dependent kinase 2/cyclin E (Homo sapiens) (UniProt P24864+P24941+O96020); assay: CDK2/cyclinE(h) Millipore kinase panel; type: protein-complex assay; conditions: Compound concentration 1.0 uM
[12] = target: AP2-associated protein kinase 1 (Homo sapiens) (UniProt Q2M2I8); assay: AAK1(h) Millipore kinase panel; conditions: Compound concentration 1.0 uM
[13] = target: Fibroblast growth factor receptor 3 (Homo sapiens) (UniProt P22607); assay: FGFR3(h) Millipore kinase panel; conditions: Compound concentration 1.0 uM
[14] = target: 5-hydroxytryptamine receptor 2B (Homo sapiens, UniProt P41595); conditions: Compound concentration 10.0 uM
[15] = target: eIF-2-alpha kinase GCN2 (Homo sapiens) (UniProt Q9P2K8); assay: GCN2(h) Millipore kinase panel; conditions: Compound concentration 1.0 uM
[16] = target: GABA-A receptor; anion channel (Rattus norvegicus) (UniProt O09028+P15431+P18506+P18508+P19969+P20236+P23574+P23576+P28471+P28473+P30191+P62813+P63079+P63138+Q91ZM7+Q9ES14); conditions: Compound concentration 10.0 uM
[17] = target: Vascular endothelial growth factor receptor 1 (Homo sapiens) (UniProt P17948); assay: Flt1(h) Millipore kinase panel; conditions: Compound concentration 1.0 uM
[18] = target: Ribosomal protein S6 kinase alpha-5 (Homo sapiens) (UniProt O75582); assay: MSK1(h) Millipore kinase panel; conditions: Compound concentration 1.0 uM
[19] = target: Phosphatidylinositol 4-phosphate 5-kinase type-1 gamma (Homo sapiens) (UniProt O60331); assay: PIP5K1g(h) Millipore kinase panel; conditions: Compound concentration 1.0 uM
[20] = target: Dual specificity protein kinase CLK4 (Homo sapiens) (UniProt Q9HAZ1); assay: CLK4(h) Millipore kinase panel; conditions: Compound concentration 1.0 uM
[21] = target: RAC-alpha serine/threonine-protein kinase (Homo sapiens) (UniProt P31749); assay: PKBalpha(h) Millipore kinase panel; conditions: Compound concentration 1.0 uM
[22] = target: MAP kinase-activated protein kinase 3 (Homo sapiens) (UniProt Q16644); assay: MAPKAP-K3(h) Millipore kinase panel; conditions: Compound concentration 1.0 uM
[23] = target: Serine/threonine-protein kinase VRK2 (Homo sapiens) (UniProt Q86Y07); assay: VRK2(h) Millipore kinase panel; conditions: Compound concentration 1.0 uM
[24] = target: Serine/threonine-protein kinase WNK4 (Homo sapiens) (UniProt Q96J92); assay: WNK4(h) Millipore kinase panel; conditions: Compound concentration 1.0 uM
[25] = target: Serine/threonine-protein kinase MAK (Homo sapiens) (UniProt P20794); assay: MAK(h) Millipore kinase panel; conditions: Compound concentration 1.0 uM
[26] = target: Rho-associated protein kinase 2 (Homo sapiens) (UniProt O75116); assay: ROCK-II(h) Millipore kinase panel; conditions: Compound concentration 1.0 uM
[27] = target: Androgen receptor (Homo sapiens) (UniProt P10275); conditions: Compound concentration 10.0 uM
[28] = target: Casein kinase II subunit alpha' (Homo sapiens) (UniProt P19784); assay: CK2alpha2(h) Millipore kinase panel; conditions: Compound concentration 1.0 uM
[29] = target: Myosin light chain kinase (Homo sapiens) (UniProt Q32MK0); assay: MLCK(h) Millipore kinase panel; conditions: Compound concentration 1.0 uM
[30] = target: Cyclin-dependent kinase 13/Cyclin-K (Homo sapiens) (UniProt Q14004+O75909); assay: CDK13/cyclinK(h) Millipore kinase panel; type: protein-complex assay; conditions: Compound concentration 1.0 uM
[31] = target: cGMP-dependent protein kinase 1 (Homo sapiens) (UniProt Q13976); assay: PKG1beta(h) Millipore kinase panel; conditions: Compound concentration 1.0 uM
[32] = target: Serine/threonine-protein kinase SBK1 (Homo sapiens) (UniProt Q52WX2); assay: SBK1(h) Millipore kinase panel; conditions: Compound concentration 1.0 uM
[33] = target: NUAK family SNF1-like kinase 2 (Homo sapiens) (UniProt Q9H093); assay: NUAK2(h) Millipore kinase panel; conditions: Compound concentration 1.0 uM
[34] = target: Dual specificity protein kinase CLK1 (Homo sapiens) (UniProt P49759); assay: CLK1(h) Millipore kinase panel; conditions: Compound concentration 1.0 uM
[35] = target: 5'-AMP-activated protein kinase catalytic subunit alpha-1 (Homo sapiens) (UniProt Q13131); assay: AMPKalpha1(h) Millipore kinase panel; conditions: Compound concentration 1.0 uM
[36] = target: Mitogen-activated protein kinase 11 (Homo sapiens) (UniProt Q15759); assay: SAPK2b(h) Millipore kinase panel; conditions: Compound concentration 1.0 uM
[37] = target: Serine/threonine-protein kinase LATS2 (Homo sapiens) (UniProt Q9NRM7); assay: LATS2(h) Millipore kinase panel; conditions: Compound concentration 1.0 uM
[38] = target: 3-phosphoinositide-dependent protein kinase 1 (Homo sapiens) (UniProt O15530); assay: PDK1(h) Millipore kinase panel; conditions: Compound concentration 1.0 uM
[39] = target: Calcium/calmodulin-dependent protein kinase type 1 (Homo sapiens) (UniProt Q14012); assay: CaMKI(h) Millipore kinase panel; conditions: Compound concentration 1.0 uM
[40] = target: Tyrosine-protein kinase HCK (Homo sapiens) (UniProt P08631); assay: Hck(h) Millipore kinase panel; conditions: Compound concentration 1.0 uM
[41] = target: Ephrin type-A receptor 3 (Homo sapiens) (UniProt P29320); assay: EphA3(h) Millipore kinase panel; conditions: Compound concentration 1.0 uM
[42] = target: 5-hydroxytryptamine receptor 1B (Homo sapiens, UniProt P28222); conditions: Compound concentration 10.0 uM
[43] = target: Homeodomain-interacting protein kinase 3 (Homo sapiens) (UniProt Q9H422); assay: HIPK3(h) Millipore kinase panel; conditions: Compound concentration 1.0 uM
[44] = target: Cyclin-dependent kinase-like 4 (Homo sapiens) (UniProt Q5MAI5); assay: CDKL4(h) Millipore kinase panel; conditions: Compound concentration 1.0 uM
[45] = target: Serine/threonine-protein kinase TBK1 (Homo sapiens) (UniProt Q9UHD2); assay: TBK1(h) Millipore kinase panel; conditions: Compound concentration 1.0 uM
[46] = target: Serine/threonine-protein kinase MARK2 (Homo sapiens) (UniProt Q7KZI7); assay: PAR-1Balpha(h) Millipore kinase panel; conditions: Compound concentration 1.0 uM
[47] = target: B2 bradykinin receptor (Homo sapiens) (UniProt P30411); conditions: Compound concentration 10.0 uM
[48] = target: STE20-like serine/threonine-protein kinase (Homo sapiens) (UniProt Q9H2G2); assay: SLK(h) Millipore kinase panel; conditions: Compound concentration 1.0 uM

Chain of Tyrosine-protein kinase HCK (Homo sapiens) (P08631 2-526 limits assumed): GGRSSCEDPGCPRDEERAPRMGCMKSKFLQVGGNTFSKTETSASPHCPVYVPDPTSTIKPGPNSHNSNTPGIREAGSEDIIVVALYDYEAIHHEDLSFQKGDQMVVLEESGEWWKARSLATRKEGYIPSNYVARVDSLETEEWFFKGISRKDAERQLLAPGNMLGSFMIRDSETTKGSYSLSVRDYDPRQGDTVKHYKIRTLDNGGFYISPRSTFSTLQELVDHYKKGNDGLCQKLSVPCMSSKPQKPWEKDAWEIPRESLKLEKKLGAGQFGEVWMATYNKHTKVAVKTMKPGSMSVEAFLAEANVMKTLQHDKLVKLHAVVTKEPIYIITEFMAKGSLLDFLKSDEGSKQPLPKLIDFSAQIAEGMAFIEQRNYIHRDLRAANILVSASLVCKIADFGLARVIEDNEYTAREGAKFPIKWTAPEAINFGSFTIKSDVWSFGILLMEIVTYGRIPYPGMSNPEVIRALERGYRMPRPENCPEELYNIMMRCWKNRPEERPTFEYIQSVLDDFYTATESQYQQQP
Chain of Casein kinase II subunit alpha' (Homo sapiens) (P19784 whole entry, looked up): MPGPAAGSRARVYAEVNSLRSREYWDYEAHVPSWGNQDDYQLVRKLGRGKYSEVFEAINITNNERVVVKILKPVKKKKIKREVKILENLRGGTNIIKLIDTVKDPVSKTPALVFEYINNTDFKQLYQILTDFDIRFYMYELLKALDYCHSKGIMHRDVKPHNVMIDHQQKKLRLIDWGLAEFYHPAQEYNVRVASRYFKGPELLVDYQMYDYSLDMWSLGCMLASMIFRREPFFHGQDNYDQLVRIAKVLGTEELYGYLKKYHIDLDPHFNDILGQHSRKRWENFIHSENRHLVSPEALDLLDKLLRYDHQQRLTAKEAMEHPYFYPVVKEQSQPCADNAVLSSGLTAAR
Chain of Serine/threonine-protein kinase WNK4 (Homo sapiens) (Q96J92 whole entry): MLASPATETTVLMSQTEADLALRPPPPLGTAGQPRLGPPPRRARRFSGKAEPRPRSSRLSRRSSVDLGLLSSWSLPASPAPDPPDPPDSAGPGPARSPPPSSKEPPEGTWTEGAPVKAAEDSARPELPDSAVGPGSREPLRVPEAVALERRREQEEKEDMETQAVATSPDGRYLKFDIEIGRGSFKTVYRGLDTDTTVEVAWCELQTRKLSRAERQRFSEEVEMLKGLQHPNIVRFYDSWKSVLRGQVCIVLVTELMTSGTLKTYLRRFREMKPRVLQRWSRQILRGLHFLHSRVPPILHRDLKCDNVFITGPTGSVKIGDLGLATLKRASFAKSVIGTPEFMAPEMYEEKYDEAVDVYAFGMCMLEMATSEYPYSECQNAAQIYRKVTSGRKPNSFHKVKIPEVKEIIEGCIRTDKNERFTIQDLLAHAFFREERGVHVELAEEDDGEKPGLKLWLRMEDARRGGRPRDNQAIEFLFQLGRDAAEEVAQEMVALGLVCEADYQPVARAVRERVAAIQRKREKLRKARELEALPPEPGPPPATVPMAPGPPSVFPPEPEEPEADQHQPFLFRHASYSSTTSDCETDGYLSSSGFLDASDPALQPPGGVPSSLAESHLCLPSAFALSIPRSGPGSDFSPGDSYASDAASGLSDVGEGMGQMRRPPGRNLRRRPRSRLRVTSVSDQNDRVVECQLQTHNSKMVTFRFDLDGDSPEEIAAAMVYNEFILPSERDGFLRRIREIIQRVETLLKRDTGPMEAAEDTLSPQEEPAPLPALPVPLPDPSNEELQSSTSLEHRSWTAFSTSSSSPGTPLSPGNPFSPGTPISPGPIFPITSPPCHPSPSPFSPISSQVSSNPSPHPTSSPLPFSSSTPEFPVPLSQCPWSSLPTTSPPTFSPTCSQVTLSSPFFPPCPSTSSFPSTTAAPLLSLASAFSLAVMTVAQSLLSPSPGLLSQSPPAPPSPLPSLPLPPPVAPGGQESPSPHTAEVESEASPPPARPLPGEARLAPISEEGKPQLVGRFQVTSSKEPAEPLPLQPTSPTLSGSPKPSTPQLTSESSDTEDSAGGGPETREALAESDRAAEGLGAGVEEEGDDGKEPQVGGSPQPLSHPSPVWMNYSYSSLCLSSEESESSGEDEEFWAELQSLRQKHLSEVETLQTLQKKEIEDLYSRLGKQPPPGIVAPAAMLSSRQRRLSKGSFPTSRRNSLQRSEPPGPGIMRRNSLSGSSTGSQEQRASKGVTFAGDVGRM
Chain of 5'-AMP-activated protein kinase catalytic subunit alpha-1 (Homo sapiens) (Q13131 whole entry, looked up): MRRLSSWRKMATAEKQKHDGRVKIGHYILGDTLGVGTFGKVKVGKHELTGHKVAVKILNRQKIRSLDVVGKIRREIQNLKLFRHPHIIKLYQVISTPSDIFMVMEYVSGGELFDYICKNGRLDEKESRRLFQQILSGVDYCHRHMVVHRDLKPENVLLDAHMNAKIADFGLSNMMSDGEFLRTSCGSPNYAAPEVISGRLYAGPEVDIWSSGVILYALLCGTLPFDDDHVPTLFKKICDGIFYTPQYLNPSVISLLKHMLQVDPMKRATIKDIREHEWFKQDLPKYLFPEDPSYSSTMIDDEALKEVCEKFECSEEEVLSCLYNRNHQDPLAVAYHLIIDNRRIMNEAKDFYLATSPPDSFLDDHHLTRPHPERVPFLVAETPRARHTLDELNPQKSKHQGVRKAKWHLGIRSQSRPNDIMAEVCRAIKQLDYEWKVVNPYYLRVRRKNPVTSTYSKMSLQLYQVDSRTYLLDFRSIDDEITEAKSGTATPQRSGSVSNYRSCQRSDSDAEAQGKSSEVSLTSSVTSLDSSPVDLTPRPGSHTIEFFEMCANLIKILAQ
Chain of MAP kinase-activated protein kinase 3 (Homo sapiens) (Q16644 whole entry, looked up): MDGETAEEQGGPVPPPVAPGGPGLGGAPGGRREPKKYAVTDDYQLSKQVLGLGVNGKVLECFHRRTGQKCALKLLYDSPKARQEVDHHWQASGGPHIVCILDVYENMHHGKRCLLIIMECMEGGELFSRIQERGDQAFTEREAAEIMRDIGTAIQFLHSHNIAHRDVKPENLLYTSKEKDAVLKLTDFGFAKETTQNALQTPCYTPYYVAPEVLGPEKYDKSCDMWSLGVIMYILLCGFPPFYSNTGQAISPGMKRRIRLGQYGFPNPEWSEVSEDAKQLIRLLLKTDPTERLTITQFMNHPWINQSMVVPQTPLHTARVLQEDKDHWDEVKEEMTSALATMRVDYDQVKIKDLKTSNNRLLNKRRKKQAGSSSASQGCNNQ
Chain of Serine/threonine-protein kinase MARK1 (Homo sapiens) (Q9P0L2 whole entry, looked up): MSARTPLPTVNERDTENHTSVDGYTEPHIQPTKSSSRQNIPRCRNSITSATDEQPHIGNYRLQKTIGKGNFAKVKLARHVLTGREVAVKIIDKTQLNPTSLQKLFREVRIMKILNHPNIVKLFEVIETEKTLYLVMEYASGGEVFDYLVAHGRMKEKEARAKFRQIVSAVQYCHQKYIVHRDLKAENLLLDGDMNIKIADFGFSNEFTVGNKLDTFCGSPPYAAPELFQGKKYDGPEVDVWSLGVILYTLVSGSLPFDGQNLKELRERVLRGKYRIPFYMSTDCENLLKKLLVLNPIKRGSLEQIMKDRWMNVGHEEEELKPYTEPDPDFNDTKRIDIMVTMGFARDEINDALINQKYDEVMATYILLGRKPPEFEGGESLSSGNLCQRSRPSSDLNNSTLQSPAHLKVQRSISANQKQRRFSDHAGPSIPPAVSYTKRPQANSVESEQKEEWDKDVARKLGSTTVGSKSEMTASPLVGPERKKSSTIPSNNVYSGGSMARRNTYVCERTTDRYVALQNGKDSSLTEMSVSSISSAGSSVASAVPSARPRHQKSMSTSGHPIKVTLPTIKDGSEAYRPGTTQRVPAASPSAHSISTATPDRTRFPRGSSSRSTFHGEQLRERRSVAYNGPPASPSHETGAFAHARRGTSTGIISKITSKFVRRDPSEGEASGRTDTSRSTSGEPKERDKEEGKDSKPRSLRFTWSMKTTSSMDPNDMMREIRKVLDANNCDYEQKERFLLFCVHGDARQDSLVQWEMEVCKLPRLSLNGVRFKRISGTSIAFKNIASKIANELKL
Chain of Mitogen-activated protein kinase 11 (Homo sapiens) (Q15759 whole entry): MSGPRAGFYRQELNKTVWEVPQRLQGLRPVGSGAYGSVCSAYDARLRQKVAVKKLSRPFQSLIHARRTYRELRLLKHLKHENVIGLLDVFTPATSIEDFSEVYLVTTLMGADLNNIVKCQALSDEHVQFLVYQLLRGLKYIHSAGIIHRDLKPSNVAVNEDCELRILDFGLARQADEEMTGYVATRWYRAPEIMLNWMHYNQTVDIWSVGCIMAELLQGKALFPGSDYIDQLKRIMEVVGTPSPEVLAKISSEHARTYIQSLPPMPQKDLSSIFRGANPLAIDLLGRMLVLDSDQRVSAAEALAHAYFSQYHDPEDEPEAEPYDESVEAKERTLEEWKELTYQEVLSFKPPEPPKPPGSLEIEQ
Chain of Serine/threonine-protein kinase VRK2 (Homo sapiens) (Q86Y07 whole entry): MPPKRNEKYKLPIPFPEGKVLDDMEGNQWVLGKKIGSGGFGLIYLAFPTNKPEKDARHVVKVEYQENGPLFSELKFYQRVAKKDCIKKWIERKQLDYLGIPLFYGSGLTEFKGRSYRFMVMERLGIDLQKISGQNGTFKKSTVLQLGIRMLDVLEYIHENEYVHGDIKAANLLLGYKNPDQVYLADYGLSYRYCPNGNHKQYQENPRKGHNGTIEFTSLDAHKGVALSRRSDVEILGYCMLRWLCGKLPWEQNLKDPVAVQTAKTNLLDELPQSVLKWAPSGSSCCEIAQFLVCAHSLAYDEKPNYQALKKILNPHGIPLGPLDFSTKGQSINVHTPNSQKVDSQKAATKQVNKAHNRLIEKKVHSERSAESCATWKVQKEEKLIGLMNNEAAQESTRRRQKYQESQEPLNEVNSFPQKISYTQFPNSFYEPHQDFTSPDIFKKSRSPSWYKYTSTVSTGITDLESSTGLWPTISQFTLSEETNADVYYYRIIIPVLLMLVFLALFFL
Chain of Sigma non-opioid intracellular receptor 1 (Homo sapiens) (Q99720 whole entry): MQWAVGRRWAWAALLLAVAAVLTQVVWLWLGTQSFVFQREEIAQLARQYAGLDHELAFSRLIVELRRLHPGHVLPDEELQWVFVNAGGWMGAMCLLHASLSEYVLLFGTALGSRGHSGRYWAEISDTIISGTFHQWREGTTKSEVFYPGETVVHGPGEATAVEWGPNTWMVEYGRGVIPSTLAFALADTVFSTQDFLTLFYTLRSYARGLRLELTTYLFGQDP

CC[C@@H](Nc1c(C#N)c(-c2ccc(-c3cccc(C)c3F)cc2)nc2cnccc12)C(=O)O [BAY-091]
inhibition [1]: 8.41% | inhibition [2]: 19% | inhibition [3]: 7.75% | inhibition [4]: -6.21% | inhibition [5]: 35.8% | inhibition [6]: 5.03% | inhibition [7]: 12.6% | inhibition [8]: 11% | inhibition [9]: 21.2% | inhibition [10]: 2.52% | inhibition [11]: 7.13% | inhibition [12]: 7.44% | inhibition [13]: -1% | inhibition [14]: 98% | inhibition [15]: -3.21% | inhibition [16]: 3% | inhibition [17]: 56.8% | inhibition [18]: 1.48% | inhibition [19]: 1.51% | inhibition [20]: 18.8% | inhibition [21]: -1.04% | inhibition [22]: 5.32% | inhibition [23]: 4.1% | inhibition [24]: 11.1% | inhibition [25]: 9.23% | inhibition [26]: -0.6% | inhibition [27]: 14% | inhibition [28]: -4.36% | inhibition [29]: -5.27% | inhibition [30]: 1.16% | inhibition [31]: 8.22% | inhibition [32]: 4.02% | inhibition [33]: 10.4% | inhibition [34]: 3.74% | inhibition [35]: -1.91% | inhibition [36]: -2.08% | inhibition [37]: 1.83% | inhibition [38]: -8.72% | inhibition [39]: 7.33% | inhibition [40]: 0.45% | inhibition [41]: 4.71% | inhibition [42]: 11.3% | inhibition [43]: 4.32% | inhibition [44]: 12.6% | inhibition [45]: 8.44% | inhibition [46]: 6.75% | inhibition [47]: 1% | inhibition [48]: 19.7%
